These results are taken from US20260217683A1, “PYRIDAZINONE HETEROCYCLIC COMPOUND MYOSIN II INHIBITOR AND USE THEREOF” (Xizang Haisco Pharmaceutical Co., Ltd., priority 2023, published 2026).

Data set [1] in a line: Pharmacokinetic experiment in mouse muscle tissue (tibialis anterior / plasma). In kind it is in vivo, C57 mice. To be noted: male, C57, tibialis anterior muscle / plasma, oral, intragastric 10 mg/kg, read-out: Ratio = Tibialis anterior Conc./Plasma Conc. As to the method: (§1) 1. Experimental animals: Male C57 mice, 22-25 g, 6 mice/compound. Purchased from Chengdu Ddossy Experimental Animals Co., Ltd.
2. Experimental design: On the day of the experiment, C57 mice were randomly grouped according to their body weight. The animals were fasted with water available for 12 to 14 h one day before the administration and were fed 4 h after the administration. Administration was performed as per Table 10.1.

The nature of data set [2]: Pharmacokinetic experiment in mice. The class given is in vivo. To be noted: male, C57, po; mouse plasma, i.g. (10 mg/kg). As for the experimental part:
as §1
2. Experimental design: On the day of the experiment, 12 C57 mice were randomly grouped according to their body weight. The animals were fasted with water available for 12 to 14 h one day before the administration and were fed 4 h after the administration.
Before and after the administration, 0.06 mL of blood was taken from the orbit of the animals under isoflurane anesthesia and placed in an EDTAK2 centrifuge tube. The blood was centrifuged at 5000 rpm and 4° C. for 10 min to collect the plasma. The blood collection time points for the intravenous group and intragastric administration group were: 0 m, 5 m, 15 min, 30 min, 1 h, 2 h, 4 h, 7 h and 24 h. Before analysis and detection, all samples were stored at −80° C., and a quantitative analysis of samples was performed using LC-MS/MS.

Data set [3] is described as follows: Pharmacokinetic experiment of beagle dogs. In kind it is in vivo. To be noted: male, dog, plasma, oral, beagles, intragastric 3 mg/kg vs intravenous 1 mg/kg, read-out: bioavailability (F). As for the experimental part:
1. Experimental animals: male beagle dogs, about 8-11 kg, 6 beagle dogs/compound, purchased from Beijing Marshall Biotechnology Co., Ltd.
2. Experimental method: On the day of the test, (6×number of test compounds (n)) beagles were randomly divided into groups according to body weight. The animals were fasted with water available for 12 to 14 h one day before the administration and were fed 4 h after the administration. Administration was performed as per Table 6.
• Before and after the administration, 1 mL of blood was taken from the jugular veins or limb veins, and placed in an EDTAK2 centrifuge tube. Centrifugation was performed at 5000 rpm at 4° C. for 10 min, and plasma was collected. The blood collection time points for the intravenous group and intragastric administration group were: 0 min, 5 min, 15 min, 30 min, 1 h, 2 h, 4 h, 6 h, 8 h, 10 h, 12 h, 24 h, 48 h, 72 h, and 96 h. Before analysis and detection, all samples were stored at −80° C. The samples were analyzed quantitatively by LC-MS/MS.

Another data set concerns B10-Dmd-KO (Mdx) mice. Put plainly: PK/PD detection of mouse model with Dmd (Mdx) gene mutation, plasma CK. In kind it is in vivo. As to conditions: oral. The text has this:
Experimental objective: Bl0-Dmd-KO (Mdx) mice are DMD function-deficient mice caused by frameshift mutations in the Dmd gene. […] This study has investigated the effects on CK and TNNI2 in the plasma of Mdx mice upon administration of compounds.
Experimental animal: B10-Dmd-KO (C57BL/10ScSnJGpt-Dmdem3Cd4/Gpt), male, 5-7 weeks old, weight 28-30 g, supplier. Gempharmatech Co., Ltd.;
• 1) Running training (D-5): Mdx mice underwent running training in batches. The training parameters were set as three time periods, i.e., the initial speed of 4 m/min for 2 min, then 8 m/min for 8 min, and finally 12 m/min for 30 min, a total of 40 min; • 2) Gripping strength test (D-2): each round was measured three times, and three rounds were performed; • 3) Grouping (DO): the animals were anesthetized by inhalation of isoflurane (concentration: 5%, gas flow rate: 1 L/min), and then a capillary tube was used to collect blood (about 150 μL) via orbital venous sinus into a 0.6 mL centrifuge tube containing EDTA anticoagulant, the plasma wad separated, and the CK value was detected, which was used as the basic value for grouping; • 4) Administration, grasping, and blood collection (D1): The compounds were dissolved in the vehicle 5% DMA+5% HS-15+90% Saline, then orally administered to the mice, and then the grip strength test was conducted (three tests per round for three rounds). […] A capillary tube was used to collect blood (>300 μL) via orbital venous sinus into a 0.6 mL centrifuge tube containing EDTA anticoagulant, and then the animals were euthanized to collect the tibialis anterior muscle (left leg), soleus muscle (both legs) and cardiac muscle, which were weighed and recorded, placed in a homogenization tube and quickly frozen in liquid nitrogen, then stored at −80° C.
Sample processing: After the whole blood anticoagulated with EDTA was centrifuged at 3000 rpm and 4° C. for 10 min, the […] was collected and subpackaged. The separated […] was subjected to a biochemical analyzer (Fully automatic biochemical analyzer Roche C311) to detect the CK value and TNN12 value (Mouse TNNI2 Elisa Kit, ABBEXA, E2207370Y); The […] concentration of the compound and the drug concentration in tibialis anterior muscle, soleus muscle and cardiac muscle were measured by LC/MS instrument.

Where [4] appears, read: 10 mpk, QD administration for 7 days.

For orientation: half-life means the time in which the quantity being followed falls by half. Low values mean fast loss, high ones slow loss. What is called AUC(0-t) is the area under the concentration-time curve up to a stated or last time point. Low values mean less exposure, high ones more exposure. As a reminder, the Cmax is the maximum level reached in the sampled fluid or tissue.

As for `O=C1CCc2ccc(Cn3nc(-c4cnc(O[C@@H]5CCOC5)nc4)ccc3=O)cc21` [Compound 149], in data set [1], the Kp at 6 h came to 113 and the Kp at 24 h is 171. This compound gave a half-life in data set [2] of 52.3 h.
On to `O=C1CCc2ccc(Cn3nc(-c4cnc(OC5CC(F)(F)C5)nc4)ccc3=O)cc21` [Compound 141], for which, in data set [1], the Kp at 6 h is 89.9 and the Kp at 24 h is 116.
For the compound `O=C1CCc2ccc(Cn3nc(-c4cnc(OCC(F)F)nc4)ccc3=O)cc21` [Compound 131], in data set [1], the Kp at 6 h was determined as 136 and the Kp at 24 h is 158. Moreover, the bioavailability in data set [3] turned out to be 112%. In data set [2], this compound showed a half-life of 91.1 h. For the same compound, the “Inhibition rate of CK values (sampled 24 h after (last) dose)” value (“Inhibition rate of CK values” for short) in the data set with B10-Dmd-KO (Mdx) mice (setting [4]) was 94.1%.
Take `O=c1ccc(-c2cnc(OCC(F)(F)F)nc2)nn1Cc1ccc2c(c1)CCC2` [Compound 57]: the “Inhibition rate of CK values” value in the data set with B10-Dmd-KO (Mdx) mice (10 mpk single administration) worked out at 108.2%.
On to `O=C1CCc2ccc(Cn3nc(-c4cnc(OCC(F)(F)F)nc4)ccc3=O)cc21` [Compound 88], for which, in data set [1], the Kp at 6 h turned out to be 63.5 and the Kp at 24 h amounted to 81.1. In data set [2], this compound gave an AUC(0-t) of 2320 ng·h/mL, a Cmax of 324 ng/mL and a half-life of 102 h. Further, the “Inhibition rate of CK values” value with B10-Dmd-KO (Mdx) mice (setting [4]) is 91.6%.
For `O=C1CCc2ccc(Cn3nc(-c4cnc(O[C@H]5CCOC5)nc4)ccc3=O)cc21` [Compound 150], in data set [1], the Kp at 6 h is 82.2 and the Kp at 24 h was 140. Also, in data set [2], the half-life was 40.7 h.
